Article PMC8205030, “Methoxy and bromo scans on N-(5-methoxyphenyl) methoxybenzenesulphonamides reveal potent cytotoxic compounds, especially against the human breast adenocarcinoma MCF7 cell line” (Journal of Enzyme Inhibition and Medicinal Chemistry, 2021)

Columns and labels:
Assay type in all cases: cell-based, human
MCF7 cells = experiment: Cell cycle analysis (PI, flow cytometry), MCF7
Method: (§1) MCF7, HeLa, and HT-29 cell cycle analyses were performed by quantifying the DNA content by flow cytometry. Cells in the exponential growth phase at 2 × 10^4 cells/mL were seeded in 24-well plates (1 ml/well). After 24 h incubation, cells were treated with compound 25 at 87.5 or 175 nM. After 24, 48, and 72 h treatments, live and dead cells were collected and fixed in ice-cold ethanol:PBS (7:3) and stored at 4 °C for later use. Cells were rehydrated with phosphate-buffered saline (PBS), treated with 100 µg/mL RNase A (Sigma-Aldrich Co., St. Louis, MO, USA), and stained overnight in darkness at room temperature with 50 µg/mL propidium iodide (PI) (Sigma-Aldrich Co.). Cell cycle profiles were then analysed by flow cytometry using BD Accuri™ C6 Plus Flow Cytometer (BD Biosciences, San José, CA, USA). Data were analysed with BD Accuri™ C6 Software (version 1.0.264.21, BD Biosciences, San José, CA, USA) and compared to control cells treated with 0.5% (v/v) DMSO. Compounds were dissolved in DMSO and the final solvent concentrations never exceeded 0.5% (v/v).

HeLa cells = experiment: Cell cycle analysis (PI, flow cytometry), HeLa
Method: as §1

[1] = tested on: microtubule network of MCF7 cells; experiment: Immunofluorescence of microtubule network, MCF7; conditions: MCF7, 175 nM, 72 h, confocal microscopy
Method: (§2) MCF7, HeLa, and HT-29 cells were grown on round glass coverslips coated with poly-L-lysine (12 mm diameter). To reach appropriate cell confluence, coverslips were manipulated in 6-well plates (3 coverslips/well) seeding 3 ml/well of cells in the exponential growth phase at 2 × 10^4 cells/mL. After 24 h incubation, cells were treated with compound 25 at 175 nM and incubated for 72 h. Cells were washed with PBS, fixed with 4% formaldehyde in PBS for 10 min, permeabilized with 0.5% Triton X-100 (Boehringer Mannheim, Ingelheimam Rhein, Germany) in PBS for 10 min, and blocked with 10% BSA in PBS for 30 min. Then, coverslips were incubated with anti-α-tubulin mouse monoclonal antibody (diluted 1:200 in 3% BSA/PBS) (Sigma-Aldrich Co.) and anti-SQSTM1/p62 rabbit monoclonal antibody (diluted 1:100 in 3% BSA/PBS) (Abcam) for 1 h 30 min. After PBS washing, coverslips were incubated with fluorescent secondary antibodies Alexa Fluor 488 goat anti-mouse IgG and Alexa Fluor 594 anti-rabbit (both diluted 1:400 in 1% BSA/PBS) (Molecular Probes, Invitrogen, Thermo Fischer Scientific) for 1 h in darkness. […] Cells were analysed by confocal microscopy using a LEICA SP5 microscope DMI-6000V model coupled to a LEICA LAS AF software computer.

[2] = tested on: microtubule network of HT-29 cells; experiment: Immunofluorescence of microtubule network, HT-29; conditions: HT-29, 175 nM, 72 h, confocal microscopy
Method: as §2

p-62 in HeLa cells = experiment: Western blot of autophagosome marker p-62, HeLa; conditions: 175 nM, 24 h
Method: MCF7, HeLa and HT-29 cells in an exponential growth phase at 2 × 10^4 cells/mL were seeded in Petri dishes (20 × 100 mm) (10 ml/dish). After 24 h incubation, cells were treated with compound 25 at 175 nM, and the levels of p-62 in treated and untreated cells were measured at 24 h post-treatment. The culture medium was removed, cells were washed with PBS and resuspended in 1 ml lysis buffer (50 mM Tris, 130 mM NaCl, 1 mM EDTA, 1% Triton X-100) containing protease inhibitors (Complete, Roche Applied Science, Indianapolis). Cells were harvested and incubated with lysis buffer for 30 min at 4 °C in constant agitation. Cell extracts were centrifuged at 12,000 rpm for 15 min at 4 °C and the supernatants were stored at −80 °C. Protein concentrations were determined using Bradford (BioRad, Hercules, CA) method taking BSA (Bovine Serum Albumin) as standard. Protein extracts were used for electrophoresis mixing with loading buffer (4% SDS, 0.05% bromophenol blue, 20% glycerine, 2% β-mercaptoethanol, and Tris 100 mM at pH 6.8). Proteins were then denatured at 95 °C for 7 min. Protein samples (50 μg/lane) were subjected to electrophoresis on 8% acrylamide gel and SDS-PAGE running buffer at constant voltage (140 V). Then, acrylamide gels were transferred to a PVDF membrane (Merck Millipore, Burlington, Massachusetts, USA) using a semi-dry transfer system for 30 min at constant voltage (15 V). […]

[3] = MCF7, 175 nM (higher dose), 48 h
[4] = MCF7, 175 nM (higher dose), 72 h

SMILES: COc1ccc(S(=O)(=O)N(CC#N)c2cc(OC)c(Br)cc2OC)cc1 [Compound 25, N-(4-bromo-2,5-dimethoxyphenyl)-N-(cyanomethyl)-4-methoxybenzenesulphonamide]
- Cells at G2/M phase (MCF7 cells; MCF7, 87.5 nM, 24 h): 66%
- subG0/G1 population (MCF7 cells; MCF7, 87.5 nM, 24 h): 12%
- Cells at G2/M phase (MCF7 cells; [3]): 55%
- subG0/G1 population (MCF7 cells; [3]): 24%
- Cells at G2/M phase (MCF7 cells; [4]): 58%
- subG0/G1 population (MCF7 cells; [4]): 26%
- Cells at G2/M phase (MCF7 cells; MCF7, 175 nM, 24 h): 60%
- subG0/G1 population (MCF7 cells; MCF7, 175 nM, 24 h): 16%
- Cells at G2/M phase (HeLa cells; 87.5 nM, 24 h): 82%
- Cells at G2/M phase (HeLa cells; 87.5 nM, 48 h): 54%
- subG0/G1 population (HeLa cells; 87.5 nM, 48 h): 34%
- Cells at G2/M phase (HeLa cells; 87.5 nM, 72 h): 41%
- Cells at G2/M phase (HeLa cells; 175 nM, 24 h): 86%
- Cells at G2/M phase (HeLa cells; 175 nM, 48 h): 48%
- subG0/G1 population (HeLa cells; 175 nM, 48 h): 29%
- Cells at G2/M phase (HeLa cells; 175 nM, 72 h): 49%
- subG0/G1 population (HeLa cells; 72 h, one value printed for 87.5 and 175 nM): 38%
- Effect on microtubule network [1]: disrupted the microtubule network
- Effect on microtubule network [2]: disrupted the microtubule network
- p-62 levels (p-62 in HeLa cells): almost complete reduction in the expression of p-62
